From ChEMBL document CHEMBL4406836, “The design of a cell-selective fowlicidin-1-derived peptide with both antimicrobial and anti-inflammatory activities” (Eur J Med Chem, 2019) come the findings set out here.

The subject of series [1] is Pseudomonas aeruginosa. Briefly: Fractional inhibitory concentration index, sum of ratio of MIC of compound in presence of […] and ratio of MIC of compound in presence of oxacillin to MIC of compound for antibacterial activity against multidrug-resistant Pseudomonas aeruginosa CCARM 2095. The series is classed as functional.
Series [2] relates to Staphylococcus aureus. Briefly: Potency index, ratio of MIC of melittin to MIC of compound for antibacterial activity against methicillin-resistant Staphylococcus aureus CCARM 3090 assessed as reduction in bacterial growth incubated for 18 hrs by spectrophotometry based microtiter broth dilution method. The format is functional. (In broth dilution the organism is exposed to a series of concentrations in liquid medium.)

Series [3] relates to Escherichia coli. Nature of the series: Antibacterial activity against Escherichia coli KCTC 1682 assessed as reduction in bacterial growth incubated for 18 hrs by spectrophotometry based microtiter broth dilution method. As to conditions: KCTC 1682, 18 h. The format is functional.
Series [4] has as its system Escherichia coli. Briefly: Antibacterial activity against Escherichia coli KCTC 1682 assessed as reduction in bacterial growth incubated for 18 hrs in presence of 150 mM NaCl by spectrophotometry based microtiter broth dilution method. As to conditions: KCTC 1682, 18 h. The series is classed as functional.
Series [5] concerns Pseudomonas aeruginosa. Briefly: Potency index, ratio of MIC of LL-37 to MIC of compound for antibacterial activity against multidrug-resistant Pseudomonas aeruginosa CCARM 2109 assessed as reduction in bacterial growth incubated for 18 hrs by spectrophotometry based microtiter broth dilution method. The format is functional.
A further series has as its system Salmonella typhimurium. Nature of the series: Antibacterial activity against Salmonella typhimurium KCTC 1926 assessed as reduction in bacterial growth incubated for 18 hrs by spectrophotometry based microtiter broth dilution method. The series is classed as functional, Salmonella enterica subsp. enterica serovar Typhimurium. As to conditions: Salmonella enterica, KCTC 1926, 18 h.

Series [6] deals with Staphylococcus aureus. Briefly: Antibacterial activity against methicillin-resistant Staphylococcus aureus CCARM 3095 assessed as reduction in bacterial growth incubated for 18 hrs by spectrophotometry based microtiter broth dilution method. As to conditions: CCARM 3095, 18 h. The series is classed as functional.
Series [7] relates to Staphylococcus aureus. Nature of the series: Antibacterial activity against methicillin-resistant Staphylococcus aureus CCARM 3089 assessed as reduction in bacterial growth at 4 uM incubated for 72 hrs in presence of oxacillin by spectrophotometry. The series is classed as functional. As to conditions: CCARM 3089, 72 h.
In series [8] the test system is Staphylococcus aureus. Briefly: Fractional inhibitory concentration, ratio of MIC of compound in presence of […] uM oxacillin to MIC of oxacillin for antibacterial activity against methicillin-resistant Staphylococcus aureus CCARM 3089. The series is classed as functional.
Series [9] deals with Staphylococcus aureus. Briefly: Fractional inhibitory concentration, ratio of MIC of compound in presence of […] uM ciprofloxacin to MIC of ciprofloxacin for antibacterial activity against methicillin-resistant Staphylococcus aureus CCARM 3089. The series is classed as functional.
The subject of series [10] is Staphylococcus aureus. Briefly: Antibacterial activity against Staphylococcus aureus KCTC 1621 assessed as reduction in bacterial growth incubated for 18 hrs in presence of 2.5 mM CaCl2 by spectrophotometry based microtiter broth dilution method. The series is classed as functional. As to conditions: KCTC 1621, 18 h.
The test system of series [11] is RAW264.7. Briefly: Cytotoxicity against mouse RAW264.7 cells assessed as reduction in cell viability at upto 16 uM incubated for 48 hrs by MTT assay. The format is cell-based. Particulars: raw264.7, 48 h. For orientation: Tetrazolium dyes change colour on reduction, which living cells bring about.
For series [12], the system named is Staphylococcus aureus. Briefly: Fractional inhibitory concentration, ratio of MIC of compound in presence of 128 uM chloramphenicol to MIC of chloramphenicol for antibacterial activity against methicillin-resistant Staphylococcus aureus CCARM 3089. The format is functional.
A short description of series [13]: Therapeutic index, ratio of MHC10 for hemolytic activity in sheep RBC assessed as minimal hemolytic concentration causing 10% hemolysis to MIC for antibacterial activity. The format is toxicity. Particulars: sheep red blood cells.
The subject of series [14] is Staphylococcus epidermidis. Nature of the series: Antibacterial activity against Staphylococcus epidermidis KCTC 1917 assessed as reduction in bacterial growth incubated for 18 hrs by spectrophotometry based microtiter broth dilution method. The format is functional. As to conditions: KCTC 1917, 18 h.
In series [15] the test system is Staphylococcus aureus. Briefly: Antibacterial activity against Staphylococcus aureus KCTC 1621 assessed as reduction in bacterial growth incubated for 18 hrs in presence of 150 mM NaCl by spectrophotometry based microtiter broth dilution method. The format is functional. As to conditions: KCTC 1621, 18 h.
Series [16] deals with RAW264.7. Nature of the series: Antiinflammatory activity in mouse RAW264.7 cells assessed as reduction in LPS-induced NO production at 4 uM incubated for 24 hrs by Griess reagent based assay relative to control. The format is functional. As to conditions: RAW264.7, 24 h. A general note: Nitrite, measured by Griess reagent, commonly stands in for NO production.
The test system of series [17] is Escherichia coli. Briefly: Antibacterial activity against Escherichia coli KCTC 1682 assessed as reduction in bacterial growth incubated for 18 hrs in presence of 6 uM NH4Cl by spectrophotometry based microtiter broth dilution method. The format is functional. As to conditions: KCTC 1682, 18 h.
The subject of series [18] is Staphylococcus aureus. Nature of the series: Potency index, ratio of MIC of LL-37 to MIC of compound for antibacterial activity against methicillin-resistant Staphylococcus aureus CCARM 3095 assessed as reduction in bacterial growth incubated for 18 hrs by spectrophotometry based microtiter broth dilution method. The series is classed as functional.
Series [19] concerns Staphylococcus aureus. Nature of the series: Induction of cytoplasmic membrane depolarization in Staphylococcus aureus at 2 times of MIC within 4 mins by SYTOX green-based assay. The series is classed as functional, organism-based.
Series [20] concerns Staphylococcus aureus. Nature of the series: Antibacterial activity against Staphylococcus aureus KCTC 1621 assessed as reduction in bacterial growth incubated for 18 hrs in presence of 4.5 mM KCl by spectrophotometry based microtiter broth dilution method. The series is classed as functional. As to conditions: KCTC 1621, 18 h.
Series [21] concerns Escherichia coli. Nature of the series: Antibacterial activity against Escherichia coli KCTC 1682 assessed as reduction in bacterial growth incubated for 18 hrs in presence of 2.5 mM CaCl2 by spectrophotometry based microtiter broth dilution method. The series is classed as functional. Particulars: KCTC 1682, 18 h.
In series [22] the test system is Staphylococcus aureus. Briefly: Potency index, ratio of MIC of LL-37 to MIC of compound for antibacterial activity against methicillin-resistant Staphylococcus aureus CCARM 3089 assessed as reduction in bacterial growth incubated for 18 hrs by spectrophotometry based microtiter broth dilution method. The format is functional.
Series [23] relates to RAW264.7. Briefly: Antiinflammatory activity in mouse RAW264.7 cells assessed as reduction in LPS-induced TNFalpha release at 8 uM preincubated for 1 hr followed by LPS-challenge and measured after 6 hrs by ELISA relative to control. The format is functional.
In series [24] the test system is Staphylococcus aureus. Nature of the series: Antibacterial activity against Staphylococcus aureus KCTC 1621 assessed as reduction in bacterial growth incubated for 18 hrs in presence of 6 uM NH4Cl by spectrophotometry based microtiter broth dilution method. The series is classed as functional. As to conditions: KCTC 1621, 18 h.
Series [25] has as its system Pseudomonas aeruginosa. Nature of the series: Potency index, ratio of MIC of LL-37 to MIC of compound for antibacterial activity against multidrug-resistant Pseudomonas aeruginosa CCARM 2095 assessed as reduction in bacterial growth incubated for 18 hrs by spectrophotometry based microtiter broth dilution method. The format is functional.
Series [26] deals with Staphylococcus aureus. Nature of the series: Antibacterial activity against Staphylococcus aureus KCTC 1621 assessed as reduction in bacterial growth incubated for 18 hrs in presence of 1 mM MgCl2 by spectrophotometry based microtiter broth dilution method. The series is classed as functional. As to conditions: KCTC 1621, 18 h.
Series [27] relates to Pseudomonas aeruginosa. Briefly: Antibacterial activity against multidrug-resistant Pseudomonas aeruginosa CCARM 2095 assessed as reduction in bacterial growth at 4 uM incubated for 72 hrs in presence of chloramphenicol by spectrophotometry. As to conditions: CCARM 2095, 72 h. The series is classed as functional.
The test system of series [28] is RAW264.7. Briefly: Antiinflammatory activity in mouse RAW264.7 cells assessed as reduction in LPS-induced TNFalpha gene expression at 8 uM incubated for 6 hrs by qRT-PCR analysis. The series is classed as functional, cell-based.
Series [29] concerns Staphylococcus aureus. Briefly: Antibacterial activity against methicillin-resistant Staphylococcus aureus CCARM 3089 assessed as reduction in bacterial growth at 8 uM incubated for 72 hrs in presence of chloramphenicol by spectrophotometry. The series is classed as functional. As to conditions: CCARM 3089, 72 h.
The subject of series [30] is RAW264.7. Nature of the series: Antiinflammatory activity in mouse RAW264.7 cells assessed as reduction in LPS-induced iNOS gene expression at 4 uM incubated for 3 hrs by qRT-PCR analysis. The series is classed as functional, cell-based.
Series [31] relates to Pseudomonas aeruginosa. Nature of the series: Antibacterial activity against multidrug-resistant Pseudomonas aeruginosa CCARM 2095 assessed as reduction in bacterial growth at 4 uM incubated for 72 hrs in presence of oxacillin by spectrophotometry. The series is classed as functional. Particulars: CCARM 2095, 72 h.

≈ marks a conversion by molar mass, not a printed value. Calls of active or inactive are those of the source. The rule behind the calls is not given here.

H-LVIRWVRAGYKLYRAIKKK-NH2: in the series with Pseudomonas aeruginosa [1], the “fractional inhibitory concentration index (FICI)” value is listed as 0.5. For the same compound, the Ratio in the series on Staphylococcus aureus [2], in the series on Pseudomonas aeruginosa [5], in the series with Staphylococcus aureus [18], in the series on Staphylococcus aureus [22] and in the series with Pseudomonas aeruginosa [25] was 2 - 8 throughout. In addition, the MIC (commonly the lowest concentration that inhibits growth of the organism) in the series with Escherichia coli [3] stood at 4 µM; in the series on Escherichia coli [4], 4 µM; in the series with Salmonella typhimurium, 2 µM; in the series on Staphylococcus aureus [6], 2 µM; in the series on Staphylococcus aureus [7], 1 µM; in the series with Staphylococcus aureus [10] it was 2 µM. Also, the MIC in series [14] stood at 4 µM; in the series on Staphylococcus aureus [15], 2 µM; with Escherichia coli [17], 4 µM; in the series with Staphylococcus aureus [20], 2 µM; in the series with Escherichia coli [21], 4 µM; in the series on Staphylococcus aureus [24] it was 2 µM. The MIC with Staphylococcus aureus [26] worked out at 4 µM. Moreover, the FIC with Staphylococcus aureus [8] turned out to be 0.25; in the series with Staphylococcus aureus [9] it was 0.25; with Staphylococcus aureus [12], 0.125. Also, the Activity entry in the series with RAW264.7 [11] is on record as “Non-Toxic”. Besides, the selectivity ratio in series [13] came to 28.4. Moreover, in the series on RAW264.7 [16], the inhibition (commonly the change of the read-out against control, counted positive when it falls) at 4 µM turned out to be 94.2%. For the same compound, the result with Staphylococcus aureus [19] was Active. Moreover, the inhibition at 8 µM in the series with RAW264.7 [23] is 75.2%.
Consider `CC[C@H](C)[C@H](NC(=O)[C@H](CCCCN)NC(=O)[C@H](CCC(=O)O)NC(=O)[C@H](CCCCN)NC(=O)[C@H](CO)NC(=O)[C@H](CCCCN)NC(=O)[C@H](CCCNC(=N)N)NC(=O)[C@H](Cc1ccccc1)NC(=O)[C@H](Cc1ccccc1)NC(=O)[C@H](CC(=O)O)NC(=O)CNC(=O)[C@H](CC(C)C)NC(=O)[C@@H](N)CC(C)C)C(=O)NCC(=O)N[C@@H](CCCCN)C(=O)N[C@@H](CCC(=O)O)C(=O)N[C@@H](Cc1ccccc1)C(=O)N[C@@H](CCCCN)C(=O)N[C@@H](CCCNC(=N)N)C(=O)N[C@H](C(=O)N[C@H](C(=O)N[C@@H](CCC(N)=O)C(=O)N[C@@H](CCCNC(=N)N)C(=O)N[C@H](C(=O)N[C@@H](CCCCN)C(=O)N[C@@H](CC(=O)O)C(=O)N[C@@H](Cc1ccccc1)C(=O)N[C@@H](CC(C)C)C(=O)N[C@@H](CCCNC(=N)N)C(=O)N[C@@H](CC(N)=O)C(=O)N[C@@H](CC(C)C)C(=O)N[C@H](C(=O)N1CCC[C@H]1C(=O)N[C@@H](CCCNC(=N)N)C(=O)N[C@H](C(=O)N[C@@H](CCC(=O)O)C(=O)N[C@@H](CO)C(=O)O)[C@@H](C)O)C(C)C)[C@@H](C)CC)C(C)C)[C@@H](C)CC` [CATHELICIDIN], for which, in the series on Pseudomonas aeruginosa [1], the “fractional inhibitory concentration index (FICI)” value was 2. The MIC was 2 µM in the series on Pseudomonas aeruginosa [27], 16 µM (≈ 71.9 µg/mL) in the series on Staphylococcus aureus [6], 4 µM in the series with Staphylococcus aureus [29] and 4 µM in the series on Pseudomonas aeruginosa [31]. The inhibition entry in the series on RAW264.7 [28] and with RAW264.7 [30] was “Active” throughout. The FIC in the series on Staphylococcus aureus [8] was 0.5; in the series with Staphylococcus aureus [9], 0.25; in the series with Staphylococcus aureus [12], 0.5. Further, the outcome in the series on Staphylococcus aureus [19] was Active.
